Experimental data reported in paper PMC12489660, “Multitargeted Caffeic Acid Derivatives Inhibit Cardiac RyR2- and NaV1.5- Channels but Stimulate SERCA2a Pump Activity” (ACS Omega, 2025).
Values joined by “and” are separate entries in the source; they are usually repeats but may differ in a detail not shown here. Equal entries are not always repeated.

Tests used:
SERCA2a = target: T1, SERCA2a (Mus musculus, UniProt O55143); experiment: NADH-coupled ATPase assay on microsomal membrane vesicles from mouse heart ventricles (mouse SER); assay type: biochemical; conditions: for effect on SERCA2a ATPase activity (in words) / ATPase activity of SERCA2a in mouse SER: 10 μM; for effect on SERCA2a ATPase activity (in words): mouse SER; for ATPase activity of SERCA2a in mouse SER: percentage from the control sample (100%), mean ± SEM; for EC50: kinetic rate of NADH–NAD+ conversion, Figure S10: 200 µM free Ca2+
T1 construct: from tissue; host or cells: adult mouse heart ventricles, microsomal membrane vesicles
Protocol: To this end, we tracked the rate of nicotinamide adenine dinucleotide (NADH) oxidation linked to ATP hydrolysis by observing changes in NADH fluorescence over time. This was done after addition of ATP to solutions containing microsomal membranes enriched with SER vesicles isolated from adult mouse heart ventricles (mouse SER). The NADH fluorescence decrease was recorded on a FlexStation 3 Multimode Microplate Reader. […] We detected the highest increase in ATPase activity (up to 118%), when the vesicles were treated with borate complex 11–13 (Table ). We tested compounds 11–13 in the NADH assay buffer to see whether these compounds could contribute to the rate of NADH fluorescence reduction (Figures S7–S9). No significant deviations were found in the rate of NADH consumption compared to the control sample (0.1 v/v% DMSO).
Isolation of Microsomal Membrane Vesicles from mouse hearts was done according to procedure described earlier. All animal procedures were performed in accordance with national and institutional regulations.
Mouse ventricular microsomes (4–5 μg of total protein) were diluted in 100 μL of the assay buffer used for measurement of SERCA activity (described below) and incubated at room temperature for 10 min prior to the experiments. The measurements of SERCA2 activity were made at 25 °C by using a NADH -coupled ATPase assay as described in Radnai et al. with slight modifications. Briefly, the assay buffer contained 60 mM MOPS, 120 mM KCl, 6 mM MgCl2, 1 mM EGTA, 5 mM NaN3, 0.5 mM phosphoenolpyruvate and 0.67 mM CaCl2, pH 7.0. Before the reaction was started by the injection of 10 μL ATP (resulting in 2 mM final concentration in the well), 5 units/mL of both lactate dehydrogenase and pyruvate kinase, 0.5 mM NADH, and 1 μM Ca^2+ ionophore A-23187 (Sigma, C-7522) were added to the diluted sample with or without the tested compound (volume −150 μL). […] The NADH fluorescence decrease was recorded each 2 s for 5 min course on a FlexStation 3 Multi-Mode Microplate Reader in 96-well glass bottom plates (MatTek Corporation; Cat. No. PBK96G-1.5-5-F). Fluorescence was evoked by 380 nm excitation wavelength and collected in a bottom-read mode at 425 nm, cutoff–470 nm, 4 flashes per read. ATP was injected at 60 s, speed–125 μL/s, pipet height–140 μL. The data were analyzed with computer software GraphPad Prism version 8.3.1 (GraphPad Software, Inc.). The difference in signal decrease with and without microsomes was taken as an indicator for the additional ATPase activity performed by SERCA2. The obtained values for maximal SERCA2 activity were normalized for total protein concentration. Maximal SERCA2 activity values are reported as percentages of control (0.1% DMSO) values. Microsomal samples that were kept on ice until usage and set to 100%.

SERCA2 = SERCA2 (Mus musculus, UniProt O55143); experiment: Caffeine induced calcium release assay on live HL-1 cardiomyocytes; assay type: cell-based; conditions: for activation of SERCA2 in HL-1: 10 μM, percentage from the control sample (100%), mean ± SEM; for EC50: 2 h preincubation, 10 mM caffeine, read-out: activation of SERCA2 in HL-1, EC50 (converted);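 as to all read-outs here: Read-out: caffeine-evoked peak minus basal fluorescence (ΔF Caff) of cytoplasmic FLIPR Calcium 6 dye, recorded for 1 min, compared with Tyrode's solution plus 0.1 v/v% DMSO as control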
SERCA2b = target: T2, SERCA2b (Homo sapiens, UniProt P16615); experiment: NADH fluorescence-coupled ATPase assay on microsomal membranes isolated from HEK-293T cells; assay type: biochemical; conditions: 10 µM, HEK-293T microsomal membranes
T2 construct: endogenous in cells; host or cells: HEK-293T cells, microsomal membranes
From the text: HL-1 cells are known to express cardiac SERCA2a. […] HL-1 cells are in fact derived from mouse atrial cardiomyocytes that coexpress SERCA2a and SERCA2b. , We assumed that such behavior of compounds 1 and 5 is associated with their selective action on additional SERCA2 isoform present in these cells.

[1] = PermeaPad membrane permeability; assay type: in vitro ADME; conditions: not told, room temperature, class low/medium in parentheses, read-out: P e (permeability rate)
From the text: We determined permeability rates (P e ), which are a measure of how fast a compound can cross a membrane, using cell-free transport models (PermeaPad, innoME GmbH) The CA derivatives have medium to low permeability rates in the range 1.0–24.0 nm/s (Table ). Similar to S36, despite poor permeability, compounds 2–4, 8, and 9 acted on live RyR2-HEK-293 R-CEPIA1er cells inhibiting RyR2. […] Since PermeaPad is an artificial model that primarily reflects passive diffusion, it is likely that additional mechanisms contribute to the crossing of cell membranes by these compounds.
Membrane permeability was assessed using PermeaPad Plate according to the manufacturing procedure (innoME GmbH, Espelkamp, Germany). Briefly, 200 μL (V A) water was added into acceptor plate. 200 μL (V D) of 100–500 μM test compound in water was added directly to the well membranes of the donor plate. The donor plate contains a biomimetic membrane for simulating passive mass transfer through different barriers in the body. Then the donor plate was placed into the acceptor plate wells and incubated at room temperature for 24 h in dark. To determine peak absorbance of test compounds, absorbance spectra of acceptor solutions and initial solutions for each test compound were read out. The Permeability Rate (P e) was calculated using the formula:
P e = C × −ln (1 – ODA/ODB) cm/s, where OD A is the absorbance of acceptor solution, OD B is the absorbance of the standard solution; if the compound is able to permeabilize the membrane and fully reach equilibrium, 250 μM will be the final concentration of solution in the donor and acceptor wells. The coefficient C was calculated using the formula: C=VD×VA/(VD+VA)×Area×time where V A–acceptor volume (cm^3), V D–donor volume (cm^3), membrane area 0.24 cm^2, time is 86,400 s.

human NaV1.5 = human NaV1.5 (Homo sapiens, UniProt Q14524); experiment: FLIPR membrane potential assay on CHO NaV1.5 Duo cells (veratridine-induced); assay type: cell-based; conditions: for NaV1.5 activity in CHO cells: 10 μM, percentage from the control sample (100%), mean ± SEM; for effect on NaV1.5 activity (in words): concentration range 0.1 to 100 μM
wild type mouse RyR2 = target: T3, wild type mouse RyR2 (Mus musculus, UniProt E9Q401); experiment: Time-lapse [Ca2+]ER assay in HEK-293 RyR2 R-CEPIA1er cells (RyR2 activity assay); assay type: cell-based; conditions: 25 μM; for effect on RyR2 activity / [Ca2+]ER (in words): vs control 0.1 v/v% DMSO; for RyR2 activity: percentage from the control sample (100%), mean ± SEM;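 as to all read-outs here: ER Ca2+ read as R-CEPIA1er fluorescence ratio F/F0 (F0 mean of initial 90 s, F mean of final 100 s), compared with vehicle-treated control wells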
T3 construct: expressed in transfected cells; host or cells: HEK-293 cells stably expressing WT RyR2 and R-CEPIA1er (gift of Dr. Takashi Murayama), induced with doxycycline

HL-1 cells = experiment: CytoTox-Glo Cytotoxicity Assay; assay type: cell-based; conditions: 24 h, concentrations up to 1 μM
Protocol: Cell viability was assessed using CytoTox-Glo Cytotoxicity Assay according to the manufacturing procedure (Promega GmbH). Briefly, HL-1 cells were cultivated for 24 h in black-walled, clear-bottom 96-well microplates (Corning) covered with fibronectin/gelatin in DMEM, containing different concentrations of the tested compound (10,000 cells/well). Luminescence of a luminogenic peptide substrate was measured before and after addition of the lysis reagent (digitonin). The viable cell contribution was determined by a subtractive method. 0.1% DMSO treated cell were taken as a control.

[2] = design: method as in earlier work; conditions: class low in parentheses; ref (number not given); cited from earlier work

Sequence of SERCA2 (O55143 1-994 limits assumed): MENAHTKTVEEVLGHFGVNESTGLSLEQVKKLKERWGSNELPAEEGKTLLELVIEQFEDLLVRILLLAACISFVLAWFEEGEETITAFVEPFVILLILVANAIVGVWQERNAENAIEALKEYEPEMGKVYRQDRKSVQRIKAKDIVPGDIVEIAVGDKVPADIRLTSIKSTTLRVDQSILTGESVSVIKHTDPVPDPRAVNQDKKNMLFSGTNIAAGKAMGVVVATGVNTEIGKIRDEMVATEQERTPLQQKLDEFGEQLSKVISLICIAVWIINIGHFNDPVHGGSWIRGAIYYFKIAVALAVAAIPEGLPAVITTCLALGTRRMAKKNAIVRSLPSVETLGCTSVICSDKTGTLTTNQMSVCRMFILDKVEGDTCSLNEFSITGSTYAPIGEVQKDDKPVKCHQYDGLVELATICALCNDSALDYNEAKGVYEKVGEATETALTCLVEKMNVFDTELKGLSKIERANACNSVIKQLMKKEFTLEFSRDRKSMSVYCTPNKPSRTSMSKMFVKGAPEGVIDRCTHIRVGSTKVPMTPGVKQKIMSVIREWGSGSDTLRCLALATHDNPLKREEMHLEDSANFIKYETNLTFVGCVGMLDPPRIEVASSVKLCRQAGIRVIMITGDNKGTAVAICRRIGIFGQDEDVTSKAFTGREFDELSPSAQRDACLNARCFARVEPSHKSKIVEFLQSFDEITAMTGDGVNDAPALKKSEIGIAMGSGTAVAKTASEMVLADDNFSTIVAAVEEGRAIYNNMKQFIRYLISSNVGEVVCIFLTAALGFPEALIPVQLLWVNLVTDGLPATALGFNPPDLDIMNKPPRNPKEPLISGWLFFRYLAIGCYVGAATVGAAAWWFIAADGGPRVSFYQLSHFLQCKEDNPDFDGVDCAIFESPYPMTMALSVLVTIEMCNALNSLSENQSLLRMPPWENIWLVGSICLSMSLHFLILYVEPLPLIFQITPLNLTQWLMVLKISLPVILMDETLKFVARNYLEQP
Sequence of human NaV1.5 (Q14524 1-460 limits assumed): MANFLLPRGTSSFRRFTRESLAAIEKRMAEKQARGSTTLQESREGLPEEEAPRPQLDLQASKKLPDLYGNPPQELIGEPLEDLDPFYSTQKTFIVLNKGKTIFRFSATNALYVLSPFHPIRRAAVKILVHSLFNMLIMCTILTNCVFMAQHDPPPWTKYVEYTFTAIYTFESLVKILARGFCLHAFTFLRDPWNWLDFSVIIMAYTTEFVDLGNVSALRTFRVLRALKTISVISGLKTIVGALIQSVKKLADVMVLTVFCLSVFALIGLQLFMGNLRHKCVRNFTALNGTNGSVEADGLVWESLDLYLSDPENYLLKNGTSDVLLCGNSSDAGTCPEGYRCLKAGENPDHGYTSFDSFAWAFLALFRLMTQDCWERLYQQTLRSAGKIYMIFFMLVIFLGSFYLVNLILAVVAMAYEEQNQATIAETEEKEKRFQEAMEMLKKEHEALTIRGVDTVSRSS
Sequence of human NaV1.5 (Q14524 661-1004 limits assumed): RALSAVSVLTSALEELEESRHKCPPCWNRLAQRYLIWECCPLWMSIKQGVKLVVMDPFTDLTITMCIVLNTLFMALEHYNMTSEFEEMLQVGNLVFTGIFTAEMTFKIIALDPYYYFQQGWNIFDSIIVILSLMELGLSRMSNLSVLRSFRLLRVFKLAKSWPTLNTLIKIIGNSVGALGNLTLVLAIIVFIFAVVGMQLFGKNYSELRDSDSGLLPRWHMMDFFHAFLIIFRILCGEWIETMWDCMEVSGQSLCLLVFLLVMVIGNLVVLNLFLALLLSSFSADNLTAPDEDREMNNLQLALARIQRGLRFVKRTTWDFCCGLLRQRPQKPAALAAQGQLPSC
Sequence of human NaV1.5 (Q14524 1142-2016 limits assumed): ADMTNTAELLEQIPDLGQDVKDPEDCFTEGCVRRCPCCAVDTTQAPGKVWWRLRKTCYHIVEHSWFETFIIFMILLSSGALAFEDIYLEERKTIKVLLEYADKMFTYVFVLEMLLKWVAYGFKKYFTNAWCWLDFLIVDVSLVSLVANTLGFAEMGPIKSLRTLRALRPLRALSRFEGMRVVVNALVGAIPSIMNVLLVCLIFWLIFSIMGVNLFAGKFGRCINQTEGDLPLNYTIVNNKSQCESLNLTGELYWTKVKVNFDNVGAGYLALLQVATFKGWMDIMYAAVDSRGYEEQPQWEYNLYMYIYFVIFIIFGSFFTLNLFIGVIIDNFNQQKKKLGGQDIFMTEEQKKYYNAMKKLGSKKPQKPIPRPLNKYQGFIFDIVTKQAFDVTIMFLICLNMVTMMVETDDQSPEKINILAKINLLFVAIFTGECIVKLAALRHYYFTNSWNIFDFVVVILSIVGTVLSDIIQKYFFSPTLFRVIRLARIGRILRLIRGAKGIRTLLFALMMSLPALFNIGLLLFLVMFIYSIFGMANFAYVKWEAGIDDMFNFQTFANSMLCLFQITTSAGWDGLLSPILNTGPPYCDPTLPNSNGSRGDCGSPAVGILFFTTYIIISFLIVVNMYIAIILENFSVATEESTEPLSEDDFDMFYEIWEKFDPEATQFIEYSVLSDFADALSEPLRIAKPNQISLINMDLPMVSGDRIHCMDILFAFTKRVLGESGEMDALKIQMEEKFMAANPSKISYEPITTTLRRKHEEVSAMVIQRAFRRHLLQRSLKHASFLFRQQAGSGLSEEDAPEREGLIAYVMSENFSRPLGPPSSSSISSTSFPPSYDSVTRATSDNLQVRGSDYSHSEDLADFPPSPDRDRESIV
T1 sequence (O55143 1-998 isoform O55143-2): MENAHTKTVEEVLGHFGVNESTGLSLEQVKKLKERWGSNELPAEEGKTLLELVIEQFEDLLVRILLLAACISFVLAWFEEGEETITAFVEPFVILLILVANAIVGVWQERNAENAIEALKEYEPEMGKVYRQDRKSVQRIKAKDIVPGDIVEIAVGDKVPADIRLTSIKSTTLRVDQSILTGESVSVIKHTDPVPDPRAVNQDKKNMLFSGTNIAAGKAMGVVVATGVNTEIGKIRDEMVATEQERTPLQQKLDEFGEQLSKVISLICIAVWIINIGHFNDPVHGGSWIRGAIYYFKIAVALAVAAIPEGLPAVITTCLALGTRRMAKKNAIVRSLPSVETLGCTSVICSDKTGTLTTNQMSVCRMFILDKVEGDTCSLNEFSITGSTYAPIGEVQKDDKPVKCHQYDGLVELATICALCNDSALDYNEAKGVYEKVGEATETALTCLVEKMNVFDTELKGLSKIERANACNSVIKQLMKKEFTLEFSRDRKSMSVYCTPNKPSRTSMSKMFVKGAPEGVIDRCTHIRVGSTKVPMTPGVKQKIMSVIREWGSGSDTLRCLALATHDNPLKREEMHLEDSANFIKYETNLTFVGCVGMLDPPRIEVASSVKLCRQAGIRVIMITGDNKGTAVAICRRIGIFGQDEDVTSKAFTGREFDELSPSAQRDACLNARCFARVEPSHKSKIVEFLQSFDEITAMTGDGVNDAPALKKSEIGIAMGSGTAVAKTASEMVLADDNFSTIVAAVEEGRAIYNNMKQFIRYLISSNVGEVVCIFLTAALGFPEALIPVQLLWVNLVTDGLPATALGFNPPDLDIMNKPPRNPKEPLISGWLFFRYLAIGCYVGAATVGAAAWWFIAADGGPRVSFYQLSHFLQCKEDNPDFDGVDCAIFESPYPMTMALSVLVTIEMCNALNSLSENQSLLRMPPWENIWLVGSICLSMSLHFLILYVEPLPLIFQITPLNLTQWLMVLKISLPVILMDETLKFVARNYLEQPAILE
T2 sequence (P16615 whole entry): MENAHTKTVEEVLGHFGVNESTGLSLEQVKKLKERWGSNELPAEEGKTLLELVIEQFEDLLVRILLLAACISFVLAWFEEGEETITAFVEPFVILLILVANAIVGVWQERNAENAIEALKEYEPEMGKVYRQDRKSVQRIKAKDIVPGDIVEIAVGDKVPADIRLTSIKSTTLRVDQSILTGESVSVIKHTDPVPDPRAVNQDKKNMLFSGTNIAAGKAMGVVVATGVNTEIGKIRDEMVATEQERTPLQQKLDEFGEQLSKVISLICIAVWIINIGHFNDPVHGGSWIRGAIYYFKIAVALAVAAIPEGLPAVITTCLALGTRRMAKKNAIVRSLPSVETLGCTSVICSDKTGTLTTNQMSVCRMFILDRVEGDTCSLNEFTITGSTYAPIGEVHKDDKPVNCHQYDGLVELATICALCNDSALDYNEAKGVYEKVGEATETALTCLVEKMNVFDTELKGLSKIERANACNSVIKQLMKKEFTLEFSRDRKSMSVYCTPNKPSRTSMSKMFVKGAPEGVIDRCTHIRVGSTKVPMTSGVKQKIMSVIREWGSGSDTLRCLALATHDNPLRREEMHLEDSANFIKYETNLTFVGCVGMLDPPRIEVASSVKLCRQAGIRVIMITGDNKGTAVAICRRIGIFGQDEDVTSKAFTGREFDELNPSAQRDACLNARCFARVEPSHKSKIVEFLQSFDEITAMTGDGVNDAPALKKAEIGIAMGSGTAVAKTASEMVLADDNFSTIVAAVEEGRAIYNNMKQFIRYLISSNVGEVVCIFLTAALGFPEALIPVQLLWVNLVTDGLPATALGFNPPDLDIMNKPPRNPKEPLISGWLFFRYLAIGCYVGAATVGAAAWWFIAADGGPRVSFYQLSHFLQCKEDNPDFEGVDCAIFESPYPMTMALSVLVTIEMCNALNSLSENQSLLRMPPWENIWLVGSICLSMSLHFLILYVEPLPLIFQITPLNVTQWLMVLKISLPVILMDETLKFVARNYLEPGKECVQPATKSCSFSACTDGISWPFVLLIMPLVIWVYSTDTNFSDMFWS

SMILES | ATPase activity of SERCA2a in mouse SER (SERCA2a) | activation of SERCA2 in HL-1 (SERCA2) | EC50 (SERCA2; HL-1 cells) | Papp at 24 h [1] | effect on RyR2 activity / [Ca2+]ER (in words) (wild type mouse RyR2) | RyR2 activity (wild type mouse RyR2) | EC50 (SERCA2a) | stimulatory effect compared to the control (SERCA2; HL-1 cells, from 1 to 10 μM, bell-shaped dose response, decreased at higher doses) | effect on SERCA2a ATPase activity (in words) (SERCA2a) | effect on ATPase activity (in words) (SERCA2b) | NaV1.5 activity in CHO cells (human NaV1.5) | viability of HL-1 cells (in words) (HL-1 cells) | P e (permeability rate) [2] | effect on NaV1.5 activity (in words) (human NaV1.5)
COc1ccc(OCCCNC(=O)/C=C/c2ccc(O)c(O)c2)cc1 [Compound 1, (E)-3-(3,4-Dihydroxyphenyl)-N-(3-(4-methoxyphenyloxy)propyl)acrylamide] | 98.2 ± 6.5% | 157.7 ± 7.1% | 15 µM and 14.9 µM | 1.8 ×10⁻⁶ cm/s | did not affect the RyR2 activity | 100.8 ± 1.3% | – | – | did not evoke a significant increase in ATPase activity | significantly increased the ATPase activity | 91.8 ± 1.0% | – | – | –
COc1ccc2c(c1)CN(C(=O)C(=O)O)CCS2 [Compound S36, reference compound] | – | – | – | – | increase in R-CEPIA1er fluorescence | 103.4 ± 0.7% | – | – | – | – | – | – | 1.0 (low, ref ) 10^–6 cm/s | no effect on NaV1.5 activity

Now from value to compound, other results behind:

ATPase activity of SERCA2a in mouse SER (SERCA2a) | activation of SERCA2 in HL-1 (SERCA2) | EC50 (SERCA2; HL-1 cells) | Papp at 24 h [1] | effect on RyR2 activity / [Ca2+]ER (in words) (wild type mouse RyR2) | RyR2 activity (wild type mouse RyR2) | EC50 (SERCA2a) | stimulatory effect compared to the control (SERCA2; HL-1 cells, from 1 to 10 μM, bell-shaped dose response, decreased at higher doses) | SMILES | effect on SERCA2a ATPase activity (in words) (SERCA2a) | effect on ATPase activity (in words) (SERCA2b) | NaV1.5 activity in CHO cells (human NaV1.5) | viability of HL-1 cells (in words) (HL-1 cells) | P e (permeability rate) [2] | effect on NaV1.5 activity (in words) (human NaV1.5)
109.0 ± 4.0% | 190.6 ± 6.6% | 9 µM and 9.1 µM | 0.9 ×10⁻⁶ cm/s | did not affect the RyR2 activity | 100.5 ± 0.8% | – | – | COc1ccc2c(c1)CN(CCCCNC(=O)/C=C/c1ccc(O)c(O)c1)CCS2 [Compound 5] | did not evoke a significant increase in ATPase activity | significantly increased the ATPase activity | 97.7 ± 1.9% | – | – | –
115.5 ± 3.7% | 299.1 ± 12.8% | 2.5 µM | 0.1 ×10⁻⁶ cm/s | significantly increased [Ca^2+]ER | 103.0 ± 0.4% | 0.023 µM and 0.0231 µM | up to 300% | COc1ccc2c(c1)CN(CCCCCCCC[NH+]([BH2-]C#N)C/C=C/c1ccc(O)c(O)c1)CCS2 (stereo not drawn) [Compound 13] | – | – | 83.3 ± 0.9% | remained unchanged | – | –
113.1 ± 2.1% | 164.0 ± 3.0% | 10.9 µM | 0.4 ×10⁻⁶ cm/s | significantly increased [Ca^2+]ER | 105.7 ± 0.4% | 0.041 µM and 0.0412 µM | – | COc1ccc2c(c1)CN(CCCCCCCCNC/C=C/c1ccc(O)c(O)c1)CCS2 [Compound 9] | – | – | 106.0 ± 1.0% | remained unchanged | – | no effect on NaV1.5
